Consider three substances from US12240890B2, “Compositions and methods for treating and/or preventing pathogenic fungal infection and for maintenance of microbiome commensalism” (priority 2017, dated 2025).

For one assay, the system named is PYY. Put plainly: ex vivo ileal tissue culture and PYY ELISA. Further details: species or system mice. How it is done: Tissues were harvested from conventional or germ-free WT mice. Three cm sections of distal ileum were dissected from the mesentery and ligated on one end. Next, Krebs buffer (pH 7.4) was inoculated with either LPS (100 ng/mL) or Carbamoylcholine (10 um) and sealed in the ileal section and incubated in Krebs at 37° C. for 30 minutes. Next, the luminal solutions were retrieved and centrifuged at 3000×g for 3 minutes to remove particulate.

Assay [1] deals with C. albicans strain SC5314. The experiment in a line: crystal violet based biofilm assay (24 hours, OD600). The class given is cell-based, Candida albicans. To be noted: crystal violet staining, 10-20 uM of respective peptides. How it is done: FIG. 13. […] Biofilm formation was measured in an assay that quantitates biofilms by staining with a crystal violet dye. The amount of dye absorbed by the biofilm positively correlates with amount of biofilm present. Amount of dye is measured via an optical density reading at a wavelength of 600 nm (OD600). Biofilm formation is measured over 24 hours in the presence or absence of peptides at 10, 30, or 40 uM concentrations.
(§1) Candida albicans (sc3514 cited in: Romanowski et al. PLOS One 7: e30119, 2012.: incorporated by reference in its entirety) and Candida tropicalis (ATCC #13803) were maintained in frozen glycerol stocks at −80° C. and streaked out on yeast-peptone-dextrose (YPD) agar plates for 48 hours at 30° C. prior to use. Single colonies were selected and cultured in YPD media at 30° C. Biofilm assays were performed using crystal violet straining (Taff et al. Med Mycol 50:214-218, 2012.: incorporated by reference in its entirety) in the presence of 10-20 uM of respective peptides. To induce hyphal growth, strains were placed in YPD+5% FBS or RPMI media at 37° C. for 4 hours. To image hyphal membrane disruption, the DNA binding fluorescent dye, propidium iodide (PI), was added to wells strains in the presence of peptides and imaged under bright field and far red fluorescent conditions. […] To investigate Candida albican virulence gene expression, 10 μL of a 1.0 OD600 culture were placed in 1 mL RPMI at 37° C. with shaking for 8 hours. Cultures were centrifuged at 3000×g for 5 minutes and RNA isolation was performed as described below.
Antifungal activity of peptides described in this application was tested by performing a crystal violet based biofilm assay. In this assay, Candida albicans is induced to form a biofilm in a 96-well plate for 24 hours in the presence or absence of peptide. Biofilm formation is quantitated through crystal violet staining and solubilization followed by optical density reading. […] Data are OD600 values normalized to appropriate within experiment vehicle control. Statistical analysis was performed via 2-Way ANOVA with multiple comparisons post-test. Significance is denoted by: *=p<0.05; **=p<0.01; ***-p<0.001; ****=p<0.0001. ns=not significant.

Another assay relates to C. tropicalis. Put plainly: respiration of C. tropicalis. The class given is cell-based, Candida tropicalis.
In assay [2] the test system is Candida albicans virulence genes. The experiment in a line: virulence gene expression by qRT-PCR. The class given is cell-based. To be noted: hyphal form, RPMI at 37° C., compared with scrambled peptide controls. How it is done: as §1
A general note: Real-time PCR tracks product formation cycle by cycle.

Another assay relates to C. albicans. Put plainly: respiration of C. albicans. The class given is cell-based, Candida albicans.
Another assay concerns Candida albicans. Put plainly: Candida albicans culture growth. The note with it: hyphal inducing conditions (broth culture containing serum). It is filed as cell-based.
Another assay has as its system Candida albicans hyphae. Put plainly: propidium iodide hyphal permeability assay. It is filed as cell-based. The note with it: N terminus FITC label, during PI assay. How it is done:
as §1
Magainin-2 compromises fungal growth by inserting into and permeabilizing the fungal cell wall. […] Permeabilization of the fungal cell wall was determined by uptake of propidium iodide (PI), a dye that is excluded by intact viable cells. […]

Consider LPS, for which the entries for the “luminal PYY release” value in the assay with PYY (Germ-free (GF) tissues) and in the assay on PYY (Specific-Pathogen Free (SPF) tissues) were “released only in response to Carb” and “released PYY”, respectively.

As to Magainin-2, the “inhibition of biofilm formation” value in assay [1] is recorded as “inhibit biofilm formation”. For the same substance, the respiration result in the assay with C. tropicalis (hyphal form) is recorded as “suppressed respiration”; in the assay with C. tropicalis (yeast form), “suppressed activity”; in the assay on C. albicans (hyphal form), “suppressed respiration”; in the assay on C. albicans (yeast form) it was “suppressed activity”. Besides, the virulence gene expression entry in assay [2] is recorded as “induced expression of several virulence genes”. In the assay with Candida albicans, the “C. albicans culture growth” value is “inhibited culture growth”.

Take “FITC-labeled PYY: fluorescently (N terminus FITC) labeled PYY”: in the assay with Candida albicans hyphae, the “localization of labeled peptide” value is recorded as “localized exclusively to the same terminal hyphal cells that take up PI”.
